Legend:
Assay in all cases: relative viability (nuclei count vs DMSO), 5 days (fraction); higher = more cells survive
[1] = compound: CCC1=CN=CN=C1N2CCN(CC2)CC3=NC4=C(N3)C=C(C=C4)C(F)(F)F + CC(=O)c1c(C)c2cnc(Nc3ccc(N4CCNCC4)cn3)nc2n(C2CCCC2)c1=O [Palbociclib] (partner 0.5 µM)
How it was run: (§1)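 For relative viability, nuclei counts in treated wells were divided by those in vehicle wells. Lung cancer cell lines had been pin-tool dosed in 1536-well plates the day after seeding and cultured for 5 days, then fixed and stained in one step (final 0.05% Triton X-100, 1% formaldehyde, 1 ug/ml Hoechst) and imaged at 4×. Doses were one drug alone or a fixed anchor-drug dose plus five library-drug doses (not always all listed) in √10 steps, and values are duplicate-plate medians.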

[2] = compound: CCn1c(-c2nonc2N)nc2cnc(Oc3cccc(NC(=O)c4ccc(OCCN5CCOCC5)cc4)c3)cc21 + Cc1nc(NC(=O)N2CCC[C@H]2C(N)=O)sc1-c1ccnc(C(C)(C)C(F)(F)F)c1 [Alpelisib] (partner 2 µM)
How it was run: as §1

Mirin + Luminespib = compound: N=C1NC(=O)/C(=C/c2ccc(O)cc2)S1 [Mirin] + CCNC(=O)c1noc(-c2cc(C(C)C)c(O)cc2O)c1-c1ccc(CN2CCOCC2)cc1 [Luminespib] (partner 0.01 µM)
How it was run: as §1

[3] = compound: CCn1c(-c2nonc2N)nc2cnc(Oc3cccc(NC(=O)c4ccc(OCCN5CCOCC5)cc4)c3)cc21 + CC(=O)Nc1cccc(-n2c(=O)n(C3CC3)c(=O)c3c(Nc4ccc(I)cc4F)n(C)c(=O)c(C)c32)c1 [Trametinib] (partner 0.02 µM)
How it was run: as §1

Row | Cell Line | relative viability ([1]; first compound 0.04 µM) | relative viability ([1]; first compound 0.1265 µM) | relative viability ([1]; first compound 0.4 µM) | relative viability ([1]; first compound 1.265 µM) | relative viability ([1]; first compound 4 µM) | relative viability ([2]; first compound 0.04 µM) | relative viability ([2]; first compound 0.1265 µM) | relative viability ([2]; first compound 1.265 µM) | relative viability ([2]; first compound 4 µM) | relative viability (Mirin + Luminespib; first compound 0.25 µM) | relative viability (Mirin + Luminespib; first compound 0.7906 µM) | relative viability (Mirin + Luminespib; first compound 2.5 µM) | relative viability (Mirin + Luminespib; first compound 7.906 µM) | relative viability (Mirin + Luminespib; first compound 25 µM) | relative viability ([3]; first compound 0.04 µM) | relative viability ([3]; first compound 0.1265 µM) | relative viability ([3]; first compound 0.4 µM) | relative viability ([3]; first compound 1.265 µM) | relative viability ([3]; first compound 4 µM) | relative viability ([2]; first compound 0.4 µM)
1 | NCI-H23 | 0.496 | 0.584 | 0.541 | 0.42 | 0.531 | 0.874 | 0.831 | 0.604 | 0.495 | 0.21 | 0.186 | 0.2 | 0.234 | 0.186 | 0.413 | 0.405 | 0.407 | 0.281 | 0.305 | 
2 | NCI-H1395 | 0.598 | 0.596 | 0.637 |  | 0.665 | 1.26 | 0.877 | 0.493 | 0.634 | 0.687 | 0.449 | 0.662 | 0.649 | 0.622 | 1.18 | 0.986 | 0.849 | 0.622 | 0.717 | 0.948
3 | NCI-H460 | 0.145 | 0.199 | 0.174 | 0.152 | 0.166 | 0.72 | 0.452 | 0.205 | 0.15 | 0.0342 | 0.0263 | 0.0361 | 0.0242 | 0.0254 | 0.132 | 0.203 | 0.0433 | 0.0407 | 0.0579 | 0.444

From the supplement of paper PMC10307832
